In patent US10168342B2, “Lipid probes and uses thereof” (THE SCRIPPS RESEARCH INSTITUTE, priority 2015, dated 2019):
Where two headings read alike, the source gives them in different places.

Key:
[1] = biological target: T1, AEA-DA lipid probe targets in Neuro2a cells (Mus musculus, UniProt O88455)
T1 sequence (O88455 1-471): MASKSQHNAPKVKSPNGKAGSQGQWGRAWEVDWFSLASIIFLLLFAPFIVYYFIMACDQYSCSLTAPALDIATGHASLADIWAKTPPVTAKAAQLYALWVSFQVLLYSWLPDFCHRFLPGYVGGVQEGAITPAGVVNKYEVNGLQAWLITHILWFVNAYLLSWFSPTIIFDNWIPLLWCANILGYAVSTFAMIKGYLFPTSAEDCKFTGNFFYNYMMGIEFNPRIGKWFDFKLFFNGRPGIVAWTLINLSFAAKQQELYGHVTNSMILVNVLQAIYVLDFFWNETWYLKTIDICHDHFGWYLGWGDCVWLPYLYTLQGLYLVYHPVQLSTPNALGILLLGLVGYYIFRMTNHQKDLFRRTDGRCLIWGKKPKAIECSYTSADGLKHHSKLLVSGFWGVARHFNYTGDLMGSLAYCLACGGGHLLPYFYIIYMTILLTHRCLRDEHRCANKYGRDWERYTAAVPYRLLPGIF

[2] = biological target: AEA-DA lipid probe targets in Neuro2a cells (Mus musculus, UniProt P06795)
AEA-DA lipid probe targets in Neuro2a cells (Mus musculus, UniProt P06795), sequence (P06795 whole entry): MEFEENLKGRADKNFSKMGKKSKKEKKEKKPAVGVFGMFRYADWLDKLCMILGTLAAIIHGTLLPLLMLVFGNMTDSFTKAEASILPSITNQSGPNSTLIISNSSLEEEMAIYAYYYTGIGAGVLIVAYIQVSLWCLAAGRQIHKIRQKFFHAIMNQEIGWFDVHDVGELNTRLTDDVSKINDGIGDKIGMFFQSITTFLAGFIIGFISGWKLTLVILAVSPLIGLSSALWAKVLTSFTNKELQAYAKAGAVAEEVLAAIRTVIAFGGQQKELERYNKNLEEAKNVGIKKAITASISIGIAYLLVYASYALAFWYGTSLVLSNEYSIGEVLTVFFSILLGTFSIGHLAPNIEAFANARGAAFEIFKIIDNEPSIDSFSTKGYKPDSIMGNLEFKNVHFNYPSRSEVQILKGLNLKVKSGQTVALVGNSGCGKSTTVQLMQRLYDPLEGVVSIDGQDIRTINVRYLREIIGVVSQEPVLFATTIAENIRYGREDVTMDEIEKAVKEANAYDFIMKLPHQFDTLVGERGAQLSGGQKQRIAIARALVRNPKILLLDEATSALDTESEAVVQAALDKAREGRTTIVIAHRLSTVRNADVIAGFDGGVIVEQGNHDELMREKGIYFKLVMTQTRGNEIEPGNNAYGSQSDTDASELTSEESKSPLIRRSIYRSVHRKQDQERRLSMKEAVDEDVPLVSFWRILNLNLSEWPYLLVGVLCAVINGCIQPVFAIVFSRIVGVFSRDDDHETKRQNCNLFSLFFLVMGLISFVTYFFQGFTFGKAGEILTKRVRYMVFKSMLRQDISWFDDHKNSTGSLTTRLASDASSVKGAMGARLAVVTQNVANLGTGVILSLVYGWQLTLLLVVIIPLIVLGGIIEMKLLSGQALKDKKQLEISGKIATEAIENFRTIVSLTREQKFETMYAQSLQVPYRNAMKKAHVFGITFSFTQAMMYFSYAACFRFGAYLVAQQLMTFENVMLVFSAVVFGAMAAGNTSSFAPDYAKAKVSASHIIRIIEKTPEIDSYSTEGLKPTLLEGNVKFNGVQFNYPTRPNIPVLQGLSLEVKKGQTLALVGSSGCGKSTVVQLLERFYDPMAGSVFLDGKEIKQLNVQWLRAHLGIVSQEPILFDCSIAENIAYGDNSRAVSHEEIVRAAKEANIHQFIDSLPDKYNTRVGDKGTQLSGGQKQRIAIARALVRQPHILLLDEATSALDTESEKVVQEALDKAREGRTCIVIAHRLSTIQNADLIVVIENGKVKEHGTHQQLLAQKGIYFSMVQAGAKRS

[3] = biological target: T2, AEA-DA lipid probe targets in Neuro2a cells (Mus musculus, UniProt P61759)
T2 sequence (P61759 1-196): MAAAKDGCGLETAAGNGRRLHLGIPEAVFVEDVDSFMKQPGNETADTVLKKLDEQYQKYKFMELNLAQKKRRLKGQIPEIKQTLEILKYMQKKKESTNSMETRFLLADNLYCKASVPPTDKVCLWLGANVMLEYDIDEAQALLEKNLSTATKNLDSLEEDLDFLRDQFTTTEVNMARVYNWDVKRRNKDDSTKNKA

[4] = biological target: T3, AEA-DA lipid probe targets in Neuro2a cells (Mus musculus, UniProt Q60930); conditions: Neuro2a cells, AEA-DA probe
T3 sequence (Q60930 1-295): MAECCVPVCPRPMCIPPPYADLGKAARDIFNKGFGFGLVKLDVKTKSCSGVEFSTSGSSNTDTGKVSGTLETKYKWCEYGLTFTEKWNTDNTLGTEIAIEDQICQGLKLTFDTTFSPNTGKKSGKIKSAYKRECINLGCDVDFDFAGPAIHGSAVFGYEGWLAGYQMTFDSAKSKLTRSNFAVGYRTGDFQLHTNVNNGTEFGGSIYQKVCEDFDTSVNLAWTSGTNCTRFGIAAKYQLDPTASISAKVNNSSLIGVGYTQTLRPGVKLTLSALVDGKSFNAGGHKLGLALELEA

[5] = biological target: T4, AEA-DA lipid probe targets in Neuro2a cells (Mus musculus, UniProt Q61035)
T4 sequence (Q61035 1-509): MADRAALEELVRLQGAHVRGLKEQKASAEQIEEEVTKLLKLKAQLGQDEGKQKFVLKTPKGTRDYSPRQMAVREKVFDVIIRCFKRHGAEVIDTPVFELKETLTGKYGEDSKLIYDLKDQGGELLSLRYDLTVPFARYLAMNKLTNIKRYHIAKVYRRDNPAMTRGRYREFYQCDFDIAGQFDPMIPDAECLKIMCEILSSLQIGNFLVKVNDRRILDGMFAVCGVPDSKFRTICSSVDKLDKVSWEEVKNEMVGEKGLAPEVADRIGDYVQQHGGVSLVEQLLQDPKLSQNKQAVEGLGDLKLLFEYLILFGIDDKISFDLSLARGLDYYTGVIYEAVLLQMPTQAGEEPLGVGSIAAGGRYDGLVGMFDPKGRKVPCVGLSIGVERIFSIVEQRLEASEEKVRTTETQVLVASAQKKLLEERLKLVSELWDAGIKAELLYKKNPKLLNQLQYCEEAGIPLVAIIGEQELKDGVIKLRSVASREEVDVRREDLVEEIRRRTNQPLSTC

[6] = biological target: T5, AEA-DA lipid probe targets in Neuro2a cells (Mus musculus, UniProt Q80UU9); conditions: for SILAC ratio, PGRMC2 (Q80UU9): Neuro2a cells, AEA-DA probe
T5 sequence (Q80UU9 1-217): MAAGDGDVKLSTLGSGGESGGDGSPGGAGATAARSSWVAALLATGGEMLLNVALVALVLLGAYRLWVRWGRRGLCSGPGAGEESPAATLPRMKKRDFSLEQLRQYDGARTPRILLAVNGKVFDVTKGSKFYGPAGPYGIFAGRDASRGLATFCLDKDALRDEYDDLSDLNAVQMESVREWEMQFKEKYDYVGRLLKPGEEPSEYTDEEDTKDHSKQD

[7] = biological target: T6, AEA-DA lipid probe targets in Neuro2a cells (Mus musculus, UniProt Q80W54)
T6 sequence (Q80W54 1-475): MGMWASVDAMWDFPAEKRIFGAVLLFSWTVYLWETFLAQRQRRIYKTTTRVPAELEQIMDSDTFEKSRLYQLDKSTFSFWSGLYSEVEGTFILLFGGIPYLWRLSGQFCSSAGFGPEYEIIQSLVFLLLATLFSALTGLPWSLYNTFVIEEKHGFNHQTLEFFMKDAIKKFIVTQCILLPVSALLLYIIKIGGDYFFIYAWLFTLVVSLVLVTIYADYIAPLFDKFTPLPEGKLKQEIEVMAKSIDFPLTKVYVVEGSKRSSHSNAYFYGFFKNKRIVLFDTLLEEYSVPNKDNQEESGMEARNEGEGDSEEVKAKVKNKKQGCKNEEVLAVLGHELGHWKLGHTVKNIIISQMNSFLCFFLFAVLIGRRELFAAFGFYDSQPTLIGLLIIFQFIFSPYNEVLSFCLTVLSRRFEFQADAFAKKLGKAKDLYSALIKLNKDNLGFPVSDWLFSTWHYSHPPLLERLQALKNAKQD

[8] = biological target: AEA-DA lipid probe targets in Neuro2a cells (Mus musculus, UniProt Q91V04)
AEA-DA lipid probe targets in Neuro2a cells (Mus musculus, UniProt Q91V04), sequence (Q91V04 whole entry): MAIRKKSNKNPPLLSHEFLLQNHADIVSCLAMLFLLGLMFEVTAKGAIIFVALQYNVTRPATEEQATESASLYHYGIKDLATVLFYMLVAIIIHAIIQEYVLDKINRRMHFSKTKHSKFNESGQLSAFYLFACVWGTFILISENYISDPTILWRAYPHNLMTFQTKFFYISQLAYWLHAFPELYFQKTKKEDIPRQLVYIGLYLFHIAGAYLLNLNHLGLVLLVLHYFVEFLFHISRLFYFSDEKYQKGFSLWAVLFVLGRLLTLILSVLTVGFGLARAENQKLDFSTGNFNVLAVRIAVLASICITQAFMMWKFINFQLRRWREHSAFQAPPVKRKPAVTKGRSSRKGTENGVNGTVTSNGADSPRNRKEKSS

[9] = biological target: AEA-DA lipid probe targets in Neuro2a cells (Mus musculus, UniProt P36536)
AEA-DA lipid probe targets in Neuro2a cells (Mus musculus, UniProt P36536), sequence (P36536 whole entry): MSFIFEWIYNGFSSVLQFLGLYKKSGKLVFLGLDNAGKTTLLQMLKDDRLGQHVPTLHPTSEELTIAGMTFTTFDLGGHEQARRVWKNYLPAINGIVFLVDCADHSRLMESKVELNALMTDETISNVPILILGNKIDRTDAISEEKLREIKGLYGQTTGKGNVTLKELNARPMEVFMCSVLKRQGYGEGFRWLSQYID

[10] = biological target: T7, AEA-DA lipid probe targets in Neuro2a cells (Mus musculus, UniProt Q9D938)
T7 sequence (Q9D938 97-188): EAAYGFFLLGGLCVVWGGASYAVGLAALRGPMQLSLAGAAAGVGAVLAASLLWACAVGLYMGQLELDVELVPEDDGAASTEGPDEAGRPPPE

Structure (SMILES): CCCCC/C=C\C/C=C\C/C=C\C/C=C\CCCC(=O)NCCO [AEA, anandamide, reference compound]
- SILAC ratio Dhcr7 ([1]; competitor 200 μM): 1.5
- SILAC ratio, Abcb1b ([2]; competitor 200 μM): 2.3
- SILAC ratio, Vbp1 ([3]; competitor 200 μM): 1.1
- SILAC ratio, VDAC2 (P45880) ([4]; competitor 200 μM): 1.2
- SILAC ratio Hars ([5]; competitor 200 μM): 1.2
- SILAC ratio, PGRMC2 (Q80UU9) ([6]; competitor 200 μM): 2.0
- SILAC ratio, Pgrmc2 ([6]; competitor 200 μM): 2.0
- SILAC ratio Zmpste24 ([7]; competitor 200 μM): 1.7
- SILAC ratio, Tram1 ([8]; competitor 200 μM): 2.9

Structure (SMILES): O=C(/C=C/c1cccnc1)NCCCCC1CCN(C(=O)c2ccccc2)CC1 [FK-866, reference compound]
- SILAC ratio Dhcr7 ([1]; competitor 25 μM): 0.9
- SILAC ratio, Abcb1b ([2]; competitor 25 μM): 5.4
- SILAC ratio, Sar1a ([9]; competitor 25 μM): 1.0
- SILAC ratio, Vbp1 ([3]; competitor 25 μM): 1.1
- SILAC ratio, VDAC2 (P45880) ([4]; competitor 25 μM): 1.0
- SILAC ratio Hars ([5]; competitor 25 μM): 1.3
- SILAC ratio, PGRMC2 (Q80UU9) ([6]; competitor 25 μM): 1.2
- SILAC ratio, Pgrmc2 ([6]; competitor 25 μM): 1.2
- SILAC ratio Zmpste24 ([7]; competitor 25 μM): 1.1
- SILAC ratio, Tram1 ([8]; competitor 25 μM): 1.2
- SILAC ratio, Tmem160 ([10]; competitor 25 μM): 1.2

Structure (SMILES): CN1CCN(C(=O)c2c(-c3ccccc3)c3cc([N+](=O)[O-])ccc3n2C)CC1 [KML110, (1-Methyl-5-nitro-3-phenyl-1H-indol-2-yl)(4-methylpiperazin-1-yl)methanone]
- SILAC ratio Dhcr7 ([1]; competitor 25 μM): 1.2
- SILAC ratio, Abcb1b ([2]; competitor 25 μM): 5.7
- SILAC ratio, Sar1a ([9]; competitor 25 μM): 1.4
- SILAC ratio, Vbp1 ([3]; competitor 25 μM): 1.6
- SILAC ratio Hars ([5]; competitor 25 μM): 1.5
- SILAC ratio, Pgrmc2 ([6]; competitor 25 μM): 1.6
- SILAC ratio Zmpste24 ([7]; competitor 25 μM): 1.4
- SILAC ratio, Tram1 ([8]; competitor 25 μM): 1.7
- SILAC ratio, Tmem160 ([10]; competitor 25 μM): 1.3

Structure (SMILES): CN1CCN(C(=O)c2[nH]c3ccc([N+](=O)[O-])cc3c2-c2ccccc2)CC1 [MJN228, (4-Methylpiperazin-1-yl)(5-nitro-3-phenyl-1H-indol-2-yl)methanone]
- SILAC ratio Dhcr7 ([1]; competitor 10 μM): 1.1
- SILAC ratio Dhcr7 ([1]; competitor 25 μM): 1.2
- SILAC ratio Dhcr7 ([1]; competitor 50 μM): 1.5
- SILAC ratio Dhcr7 ([1]; competitor 100 μM): 1.7
- SILAC ratio, Abcb1b ([2]; competitor 10 μM): 2.6
- SILAC ratio, Abcb1b ([2]; competitor 25 μM): 4.0
- SILAC ratio, Abcb1b ([2]; competitor 50 μM): 9.4
- SILAC ratio, Abcb1b ([2]; competitor 100 μM): 20.0
- SILAC ratio, Sar1a ([9]; competitor 10 μM): 1.3
- SILAC ratio, Sar1a ([9]; competitor 25 μM): 1.7
- SILAC ratio, Sar1a ([9]; competitor 50 μM): 1.7
- SILAC ratio, Sar1a ([9]; competitor 100 μM): 2.2
- SILAC ratio, Vbp1 ([3]; competitor 25 μM): 1.5
- SILAC ratio, Vbp1 ([3]; competitor 50 μM): 0.9
- SILAC ratio, Vbp1 ([3]; competitor 100 μM): 2.0
- SILAC ratio, VDAC2 (P45880) ([4]; competitor 25 μM): 1.0
- SILAC ratio Hars ([5]; competitor 10 μM): 1.6
- SILAC ratio Hars ([5]; competitor 25 μM): 1.5
- SILAC ratio Hars ([5]; competitor 50 μM): 1.0
- SILAC ratio Hars ([5]; competitor 100 μM): 1.4
- SILAC ratio, PGRMC2 (Q80UU9) ([6]; competitor 25 μM): 1.5
- SILAC ratio, Pgrmc2 ([6]; competitor 10 μM): 1.2
- SILAC ratio, Pgrmc2 ([6]; competitor 25 μM): 1.5
- SILAC ratio, Pgrmc2 ([6]; competitor 50 μM): 1.7
- SILAC ratio, Pgrmc2 ([6]; competitor 100 μM): 2.0
- SILAC ratio Zmpste24 ([7]; competitor 10 μM): 1.1
- SILAC ratio Zmpste24 ([7]; competitor 25 μM): 1.2
- SILAC ratio Zmpste24 ([7]; competitor 50 μM): 1.3
- SILAC ratio Zmpste24 ([7]; competitor 100 μM): 1.9
- SILAC ratio, Tram1 ([8]; competitor 10 μM): 1.3
- SILAC ratio, Tram1 ([8]; competitor 25 μM): 1.8
- SILAC ratio, Tram1 ([8]; competitor 50 μM): 1.9
- SILAC ratio, Tram1 ([8]; competitor 100 μM): 5.4
- SILAC ratio, Tmem160 ([10]; competitor 10 μM): 1.2
- SILAC ratio, Tmem160 ([10]; competitor 25 μM): 1.5
- SILAC ratio, Tmem160 ([10]; competitor 100 μM): 3.5

Structure (SMILES): C=CCN(C)CCCCCCOc1ccc(C(=O)c2ccc(Br)cc2)c(F)c1 [Ro 48-8071, reference compound]
- SILAC ratio Dhcr7 ([1]; competitor 25 μM): 0.8
- SILAC ratio, Abcb1b ([2]; competitor 25 μM): 1.7
- SILAC ratio, Sar1a ([9]; competitor 25 μM): 1.1
- SILAC ratio, Vbp1 ([3]; competitor 25 μM): 0.9
- SILAC ratio, VDAC2 (P45880) ([4]; competitor 25 μM): 1.0
- SILAC ratio Hars ([5]; competitor 25 μM): 0.9
- SILAC ratio, PGRMC2 (Q80UU9) ([6]; competitor 25 μM): 1.3
- SILAC ratio, Pgrmc2 ([6]; competitor 25 μM): 1.3
- SILAC ratio Zmpste24 ([7]; competitor 25 μM): 1.0
- SILAC ratio, Tram1 ([8]; competitor 25 μM): 1.8
- SILAC ratio, Tmem160 ([10]; competitor 25 μM): 1.2
